Data published in patent US20070015799A1, “Glyoxalase inhibitors” (priority 2003, published 2007).

Assays:
[1] = target: T1, Recombinant human glyoxalase I (Homo sapiens, UniProt Q04760); assay: Glyoxalase I inhibition assay (96-well kinetic spectrophotometric assay, 240 nm); format: biochemical; conditions: for IC50: concentration giving 50% of the vehicle control response; for inhibition at 20 µM: 20 μM compound, Vmax relative to control without inhibitor, pH 6.6, 25° C.
T1 construct: made in house; host or cells: E. coli
T1 sequence (Q04760 2-184 limits assumed): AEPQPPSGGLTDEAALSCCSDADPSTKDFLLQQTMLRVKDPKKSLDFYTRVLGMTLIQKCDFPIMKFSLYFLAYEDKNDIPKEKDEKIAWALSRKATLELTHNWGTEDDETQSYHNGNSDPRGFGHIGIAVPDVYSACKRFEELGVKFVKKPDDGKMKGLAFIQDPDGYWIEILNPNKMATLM
Description: Glyoxalase I catalyses the formation of S-D-lactoylglutathione from the hemithioacetal that forms non-enzymatically from methylglyoxal and reduced glutathione (GSH). The standard literature assay is a cuvette-based spectrophotometric method using the product of glyoxalase I, S-D-lactoylglutathione, as the chromophore (240 nm) (Racker, J. Biol. Chem. 190, 685-686 (1951); Principato et al., Biochem International 6, 249-255 (1983)). This literature method was modified for use as a 96-well plate, kinetic assay.
The buffer (0.1M potassium phosphate buffer pH 6.6) and inhibitors are added to appropriate wells of a 96 well plate. Methylglyoxal (prepared in potassium phosphate buffer pH 6.6) and reduced glutathione (prepared in potassium phosphate buffer pH 6.6) are added to appropriate wells. These reagents are incubated for 15 minutes, shaking at room temperature to allow the formation of the hemithioacetal substrate of glyoxalase I. Recombinant human glyoxalase I (expressed in E. coli. and purified by S-hexylglutathione-agarose chromatography as described in Ridderstorm M. and Mannervik B., Biochem J. 314, 463-467 (1996)) is added and the plate is shaken briefly, before being placed in a Spectra Max 190 microplate spectrophotometer (Molecular Devices) at 25° C. Absorbance is monitored at 240 nm, with readings being taken every 30 seconds. The reaction is monitored for 15 minutes and PathCheck® measurements are taken on completion of the assay and the absorbance values normalized to a 1 cm pathlength. The integral software determines the Vmax using the first 20 readings. S-hexylglutathione is used as a positive control in the assays.
Data are expressed as a percentage of the control Vmax, measured in the absence of inhibitor.
Compounds iv, A, ix and E from examples 1 to 4 above respectively were subjected to the above glyoxalase I binding assay at a concentration of 20 μM (20 micromolar). Inhibitory effects are expressed in table 2 as either IC50 values, defined as the concentration, in μM, of the compound that results in 50% of the vehicle control response, or as the percentage of the vehicle control response at the highest concentration of compound tested.

[2] = tested on: HL60 (human promyelocytic leukaemia) cells; assay: HL60 cell assay (WST-1 growth inhibition); format: cell-based; conditions: for IC50: concentration giving 50% of the vehicle control response; for % proliferation inhibition in HL60s: highest concentration tested (range 20-1.25 μM), mean of six replicates
Method: HL60 (human promyelocytic leukaemia) cells were seeded (50 μl/well) at a density between 0.25-0.4×10^5/ml in a 96 multi-well plate. Twenty four hours later 50 μl. of the relevant compound dilution made up in culture medium was added to the wells (final concentration range 20-1.25 μM in 0.1% DMSO). After incubating at 37° C. in a 5% CO2 atmosphere for a further 72 hours, assessment of growth inhibitory effects of compounds was measured using a colorimetric assay that is based on the cleavage of the tetrazolium salt WST-1 (Roche) by mitochondrial dehydrogenase in viable cells. WST-1 reagent (10 μl) was added to each well and the plate was agitated for 1 min. After a 3-4 hour incubation at 37° C. in a 5% CO2 incubator the absorbance at 450 nm was read spectrophotometrically, after subtraction of a reference wavelength absorbance, at […].
Compounds iv, ix and E from examples 1, 3 and 4 above respectively were subjected to the above cell assay. Results were the mean of six replicates and were expressed as the percentage of the DMSO vehicle control response. Inhibitory effects are expressed in table 3 in the form of either IC50 values, which was defined as the concentration (μM) of compound that results in 50% of the vehicle control response, or as the % of vehicle control response at the highest concentration of compound tested.

[3] = Homo sapiens, HL-60, 72 hours incubation

Row | Structure (SMILES) | inhibition at 20 µM [1] [%] | also measured
1 | O=C(O)C(Sc1ccc(CN(O)C(=O)c2ccccc2)cc1)c1ccccc1 (stereo not shown) [A, {4-[(Benzoyl-hydroxy-amino)-methyl]-phenylsulfanyl)-phenyl-acetic acid] | – | IC50 [1]: 9.7 µM
2 | N#Cc1c(-c2ccc(Cl)cc2)cc(-c2cccs2)nc1SC(C(=O)O)c1ccccc1 (stereo not shown) [Compound 1] | ≥ 30 | –
3 | COc1ccc(-c2cc(-c3ccccc3)nc(SC(C(=O)O)c3ccccc3)c2C#N)cc1 (stereo not shown) [Compound 2] | ≥ 30 | –
4 | O=C(CSc1ccccc1C(=O)O)c1ccc(-c2ccccc2)cc1 [Compound 3, 2-(2-Biphenyl-4-yl-2-oxo-ethylsulfanyl)-benzoic acid] | ≥ 30 | –
5 | COc1ccc(-c2cc(-c3ccccc3)nc(SCc3ccccc3C(=O)O)c2C#N)cc1 [Compound 4] | ≥ 30 | –
6 | Cc1ccc(-c2cc(-c3ccccc3)c(C#N)c(SCC(=O)Nc3ccc(C(=O)O)cc3)n2)cc1 [Compound 9] | ≥ 30 | –
7 | COc1ccc(-c2cc(-c3cccs3)nc(SC(C(=O)O)c3ccccc3)c2C#N)cc1 (stereo not shown) [Compound 11] | ≥ 30 | –
8 | N#Cc1c(-c2cccs2)cc(-c2cccs2)nc1SC(C(=O)O)c1ccccc1 (stereo not shown) [Compound 13] | ≥ 30 | –
9 | N#Cc1c(-c2ccccc2)cc(-c2cccs2)nc1SC(C(=O)O)c1ccccc1 (stereo not shown) [Compound 14] | ≥ 30 | –
10 | CC(C)C(Sc1nc(-c2ccccc2)cc(-c2ccccc2)c1C#N)C(=O)O (stereo not shown) [Compound 25] | ≥ 30 | –
11 | COC(=O)c1ccccc1CSc1ccc(CN(O)C(=O)c2ccccc2)cc1 [Compound ix, 2-{4-[(Benzoyl-hydroxy-amino)-methyl]-phenylsulfanylmethyl}-benzoic acid methyl ester] | 0 | IC50 [2, 3]: 15 µM
12 | O=C(O)c1ccccc1CSc1ccc(CN(O)C(=O)c2ccccc2)cc1 [E, 2-{4-[(Benzoyl-hydroxy-amino)-methyl]-phenylsulfanylmethyl}-benzoic acid] | – | % proliferation inhibition in HL60s ([2]; 72 hours incubation): 4%; IC50 [1]: 1.9 to 2.26 µM
13 | CCOC(=O)c1ccccc1SCC(=O)c1ccc(-c2ccccc2)cc1 [ethyl ester of compound 3] | – | IC50 ([2]; 72 hours incubation): 7.5 µM; % proliferation inhibition in HL60s ([2]; 72 hours incubation): 72%
14 | CCOC(=O)C(Sc1ccc(CN(O)C(=O)c2ccccc2)cc1)c1ccccc1 (stereo not shown) [iv, {4-[(Benzoyl-hydroxy-amino)-methyl]-phenylsulfanyl}-phenyl-acetic acid ethyl ester] | 28.5 | IC50 [2, 3]: 8.3 µM; % proliferation inhibition in HL60s ([2]; 72 hours incubation): 80%
